Experimental data: paper PMC9032233, “2-{5-[(Z,2Z)-2-Chloro-3-(4-nitrophenyl)-2-propenylidene]-4-oxo-2-thioxothiazolidin-3-yl}-3-methylbutanoic Acid as a Potential Anti-Breast Cancer Molecule” (International Journal of Molecular Sciences, 2022)
Where two headings read alike, the source gives them in different places.

Legend:
[1] = tested on: MCF-7 human breast cancer cells; test: MTT cell viability assay, MCF-7; format: cell-based; conditions: MCF7, MCF-7, MTT, 24 h incubation
Experimental: Cell culture MCF-7, MDA-MB-231 human breast cancer cells, and fibroblasts skin cells were purchased from the ATCC—American Type Culture Collection. All cell lines were maintained in DMEM (Corning, Kennebunk, ME, USA). The medium was supplemented with 10% fetal bovine serum—FBS (Eurx, Gdansk, Poland) and 1% antimicrobial substances: penicillin–streptomycin (Corning, Kennebunk, ME, USA). The incubator asserted appropriate growth conditions required for these cell lines: 5% of CO2, at 37 °C, with the humidity between 90–95%. Cells were seeded in 100 mm round dishes. An amount of 0.05% trypsin containing 0.02% EDTA (Corning, Kennebunk, ME, USA) and phosphate-buffered saline (PBS) without calcium and magnesium (Corning, Kennebunk, ME, USA) was used to detach cells from a plate once 80–90% cell confluence was achieved. In the next step, cells were reseeded in six-well plates (density—5 × 10^5 of cells per well) in 1 mL of DMEM after a 24 h incubation used in the presented tests.
To examine the effect of Les-3331 on cell viability, the MTT assay was performed. […] The absorbance was measured using Spectrophotometer UV-VIS Helios Gamma (Unicam/ThermoFisher Scientific Inc., Waltham, MA, USA) at a wavelength of 570 nm. The obtained absorbance in untreated control cells was taken as 100%, while the survival of the cells incubated with tested compounds presented as a percentage of the control value.

[2] = tested on: topoisomerase II; test: Topoisomerase II concentration in MCF-7 cell lysates (ELISA); format: cell-based, human; conditions: 24 h, control 2.260 ng/mL
Experimental: (§1) High sensitivity assay kits (EIAab Science Co., Ltd., Wuhan, China; Abcam plc., Cambridge, United Kingdom; Cloud-Clone Corp., Katy, TX, USA) were used to determine the concentrations of selected proteins in cell lysates after 24 h incubation with novel compound and reference drug in 1 µM and 5 µM concentrations. In brief, after trypsinization, cells were washed thrice with cold PBS and centrifuged at 1000× g for 5 min at 4 °C. Then, cells (1.5 × 10^6) were suspended in lysis buffer for whole-cell lysates. After the second centrifugation, cellular supernatants were frozen immediately at −70 °C. Untreated cancer cells were taken as a control.
(§2) The microtiter plates provided in the kits were pre-coated with an antibody specific to the analyzed antigen. The tests were carried out according to the manufacturer’s protocols.

[3] = tested on: caspase-9; test: Caspase-9 concentration in MDA-MB-231 cell lysates (ELISA); format: cell-based, human; conditions: 24 h, control 65.073 ng/mL
Experimental: as §1, §2

[4] = tested on: caspase-9; test: Caspase-9 concentration in MCF-7 cell lysates (ELISA); format: cell-based, human; conditions: 24 h, control 120.913 ng/mL
Experimental: as §1, §2

[5] = tested on: MDA-MB-231 cells; test: [3H]-thymidine incorporation assay, MDA-MB-231; format: cell-based; conditions: Homo sapiens
Experimental: The antiproliferative properties of the newly synthesized compound were investigated through the [^3H]-thymidine incorporation assay, as described in the literature. Cells culture was exposed to various concentrations of Les-3331 acid and reference drug for 24 h. Thereafter, cells were washed with PBS and 1 mL of fresh medium was added to each well. Then, 0.5 µCi of radioactive [^3H]-thymidine was appended, and the incubation continued for four hours. After the following incubation, the liquid was aspirated and the plate was placed on ice. Cells were washed twice with 1 mL of 0.05 M Tris-HCl buffer comprising 0.11 M NaCl, then twice after that with 1 mL of 5% TCA acid (Stanlab, Lublin, Poland). Finally, the cells were dissolved with 1 mL of 0.1 M NaOH with 1% SDS (Sigma-Aldrich, St. Louis, MO, USA) at room temperature (RT). The resulting cell lysates were transferred into scintillation vials containing 2 mL of scintillation fluid. The radioactivity was determined using Scintillation Counter 1900 TR, TRI-CARB (Packard, Perkin Elmer, Inc., San Jose, CA, USA). The intensity of DNA biosynthesis in cells was expressed in dpm of radioactive thymidine incorporated in the DNA. The radioactivity observed in untreated control cells was taken as 100%. Values from the tested compounds were expressed as a percentage of the control value.

[6] = tested on: LC3A; test: LC3A concentration in MDA-MB-231 cell lysates (ELISA); format: cell-based, human; conditions: 24 h, control 2.965 ng/mL
Experimental: as §1, with “after 24 h incubation with novel compound and reference drug in 1 µM and 5 µM concentrations.” left out
as §2

[7] = tested on: MDA-MB-231 cells; test: Annexin V binding assay (flow cytometry), MDA-MB-231; format: cell-based, human; conditions: 24 h
Experimental: The effect of Les-3331 and reference drug on the induction of apoptosis process in human breast cancer cell lines was evaluated using a flow cytometer (BD FACSCanto II, Becton Dickinson Biosciences Systems, San Jose, CA, USA) and Annexin V binding Apoptosis Detection Kit II (BD Biosciences, San Diego, CA, USA). The Les-3331 and reference drug were used in 1 µM and 5 µM concentrations. The test was carried out after 24 h incubation with the tested compounds according to the manufacturer’s protocol and was previously described by our research group. Analysis of the obtained results was performed using FACSDiva software (version 6.1.3, BD Biosciences Systems, San Jose, CA, USA). The equipment was calibrated with BD Cytometer Setup and Tracking Beads (BD Biosciences, San Diego, CA, USA).

[8] = tested on: caspase-8; test: Caspase-8 concentration in MDA-MB-231 cell lysates (ELISA); format: cell-based, human; conditions: 24 h, control 0.828 ng/mL
Experimental: as §1, §2

Structure (SMILES) | IC50 [1] | Top II concentration ([2]; MCF-7, 1 µM) | Top II concentration ([2]; MCF-7, 5 µM) | Casp-9 concentration ([3]; MDA-MB-231, 1 µM) | Casp-9 concentration ([3]; MDA-MB-231, 5 µM) | Casp-9 concentration ([4]; 1 µM) | Casp-9 concentration ([4]; 5 µM) | IC50 ([5]; MDA-MB-231, read-out: IC50, cell proliferation ([3H]-thymidine incorporation)) | LC3A concentration ([6]; MDA-MB-231, 5 µM) | % of late and early apoptotic cells ([7]; MDA-MB-231, 1 µM) | % of late and early apoptotic cells ([7]; MDA-MB-231, 5 µM) | Casp-8 concentration ([8]; MDA-MB-231, 1 µM) | Casp-8 concentration ([8]; MDA-MB-231, 5 µM) | IC50 ([5]; MDA-MB-231, 24 h incubation, read-out: IC50, cell proliferation ([3H]-thymidine incorporation)) | LC3A concentration ([6]; MDA-MB-231, 1 µM)
CC(C)C(C(=O)O)N1C(=O)/C(=C/C(Cl)=C/c2ccc([N+](=O)[O-])cc2)SC1=S (stereo not drawn) [Les-3331, 2-{5-[(Z,2Z)-2-chloro-3-(4-nitrophenyl)-2-propenylidene]-4-oxo-2-thioxothiazolidin-3-yl}-3-methylbutanoic acid] | 5.02 µM | 0.900 ng/mL | 0.625 ng/mL | 84.300 ng/mL | 92.523 ng/mL | 150.187 ng/mL | 168.243 ng/mL | 8.01 µM | 1.258 ng/mL | 5.1% | 18.1% | 1.012 ng/mL | 1.067 ng/mL | – | –
COc1cc([C@@H]2c3cc4c(cc3[C@@H](O[C@@H]3O[C@@H]5CO[C@@H](C)O[C@H]5[C@H](O)[C@H]3O)[C@H]3COC(=O)[C@H]23)OCO4)cc(OC)c1O [Etoposide, reference compound] | > 50 µM | 1.587 ng/mL | 1.443 ng/mL | 86.953 ng/mL | 93.620 ng/mL | 154.960 ng/mL | 158.900 ng/mL | – | 1.313 ng/mL | 4.7% | 7.2% | 0.836 ng/mL | 0.857 ng/mL | > 20 µM | 2.800 ng/mL
